Source: ChEMBL document CHEMBL1201862, “PubChem BioAssay data set” (2004)
Calls of active or inactive are those of the source.

Experiments:
[1] = biological target: G-protein coupled receptor 35 (Homo sapiens, UniProt Q9HC97); experiment: GPR35 antagonists blocking zaprinast-driven arrestin recruitment, primary screen, imaging, U2OS, beta-arrestin-GFP, zaprinast agonist (AID 2058); format: functional;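 note: antagonist potency meaning inhibition of agonist-induced arrestin redistribution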
[2] = biological target: T1, Streptokinase A (Streptococcus pyogenes serotype M1, UniProt P10520); experiment: S. pyogenes streptokinase expression inhibitors, potency, dose response, plasminogen activation absorbance, OD405 (AID 1914); format: functional, Streptococcus pyogenes M1 GAS;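 note: secreted streptokinase activity via plasminogen activation per viability signal from cell pellet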
T1 sequence (P10520 whole entry): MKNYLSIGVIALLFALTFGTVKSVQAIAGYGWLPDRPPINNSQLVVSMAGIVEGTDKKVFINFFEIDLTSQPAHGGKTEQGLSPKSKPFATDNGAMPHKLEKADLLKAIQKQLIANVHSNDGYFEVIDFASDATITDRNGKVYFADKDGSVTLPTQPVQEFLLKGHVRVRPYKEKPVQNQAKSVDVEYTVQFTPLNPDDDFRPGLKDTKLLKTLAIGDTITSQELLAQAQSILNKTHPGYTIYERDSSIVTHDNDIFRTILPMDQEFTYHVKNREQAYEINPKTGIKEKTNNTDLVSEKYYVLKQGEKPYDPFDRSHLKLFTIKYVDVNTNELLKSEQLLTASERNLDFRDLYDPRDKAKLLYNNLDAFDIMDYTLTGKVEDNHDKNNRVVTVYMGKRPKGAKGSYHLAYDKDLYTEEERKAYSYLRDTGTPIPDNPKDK

[3] = biological target: Heat shock protein HSP 90-alpha (Homo sapiens, UniProt P07900); format: functional, organism-based
[4] = biological target: Fatty acid synthase (Homo sapiens, UniProt P49327); experiment: FAS thioesterase domain inhibitors, dose response, biochemical, kinetic fluorescence intensity (AID 624326); format: functional;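 note: rate of fluorescence rise from hydrolysis of a fluorogenic O-methyl fluorescein ester substrate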
[5] = biological target: Intestinal-type alkaline phosphatase (Homo sapiens, UniProt P09923); experiment: activation of human intestinal alkaline phosphatase – biochemical, dose response (AID 488873); format: functional
[6] = biological target: Intestinal-type alkaline phosphatase (Mus musculus, UniProt P24822); experiment: mouse intestinal alkaline phosphatase activators, dose response, biochemical, luminescence, uHTS hits (AID 488783); format: functional
[7] = biological target: T2, Alkaline phosphatase, tissue-nonspecific isozyme (Homo sapiens, UniProt P05186); experiment: TNAP enzyme activators, dose response, selectivity assay for mouse IAP activator project, biochemical, TNAP isozyme, mouse IAP uHTS hits (AID 488880); format: functional
T2 sequence (P05186 whole entry): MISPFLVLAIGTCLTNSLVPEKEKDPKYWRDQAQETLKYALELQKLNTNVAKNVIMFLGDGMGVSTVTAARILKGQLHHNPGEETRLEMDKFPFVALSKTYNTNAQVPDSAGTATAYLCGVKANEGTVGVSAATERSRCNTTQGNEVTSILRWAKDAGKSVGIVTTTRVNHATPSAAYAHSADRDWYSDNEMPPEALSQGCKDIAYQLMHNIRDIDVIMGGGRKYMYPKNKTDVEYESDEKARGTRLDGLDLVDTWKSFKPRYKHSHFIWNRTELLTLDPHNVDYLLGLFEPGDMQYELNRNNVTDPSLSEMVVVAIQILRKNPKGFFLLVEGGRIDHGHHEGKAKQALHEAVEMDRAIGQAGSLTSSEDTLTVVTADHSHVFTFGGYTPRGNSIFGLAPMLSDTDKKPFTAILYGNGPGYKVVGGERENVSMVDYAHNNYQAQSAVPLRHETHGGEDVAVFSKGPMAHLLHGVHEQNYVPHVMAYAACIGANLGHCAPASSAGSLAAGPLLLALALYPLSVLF

[8] = biological target: Tyrosine-protein kinase JAK2 (Homo sapiens, UniProt O60674); format: functional;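 note: JAK2 tested as one member of a kinase panel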
[9] = biological target: Phosphorylase b kinase gamma catalytic chain, liver/testis isoform (Homo sapiens, UniProt P15735); format: functional;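 note: PHKG2 measured as one member of a kinome-wide kinase panel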
[10] = biological target: Protein kinase C delta type (Homo sapiens, UniProt Q05655); format: functional
[11] = biological target: Rho-associated protein kinase 2 (Homo sapiens, UniProt O75116); format: functional
[12] = biological target: SRSF protein kinase 1 (Homo sapiens, UniProt Q96SB4); format: functional;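 note: measured as one member of a kinome-wide kinase profiling panel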
[13] = biological target: MAP kinase-activated protein kinase 2 (Homo sapiens, UniProt P49137); format: functional;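 note: measured as one member of a kinome-wide kinase panel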
[14] = biological target: Serine/threonine-protein kinase PAK 4 (Homo sapiens, UniProt O96013); format: functional;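 note: value obtained within a kinome profiling panel in which PAK4 was one of the panel members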
[15] = biological target: Calcium/calmodulin-dependent protein kinase type II subunit delta (Homo sapiens, UniProt Q13557); format: functional
[16] = biological target: Tyrosine-protein kinase JAK3 (Homo sapiens, UniProt P52333); format: functional
[17] = biological target: Ribosomal protein S6 kinase alpha-5 (Homo sapiens, UniProt O75582); format: functional
[18] = biological target: Tyrosine-protein kinase Lyn (Homo sapiens, UniProt P07948); format: functional;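 note: lyn as one member of a kinase panel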
[19] = biological target: Proto-oncogene tyrosine-protein kinase ROS (Homo sapiens, UniProt P08922); format: functional;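 note: ROS1 tested as one member of a kinome-wide kinase panel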
[20] = biological target: High affinity nerve growth factor receptor (Homo sapiens, UniProt P04629); format: functional;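 note: NTRK1 tested as one member of a kinome-wide profiling panel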
[21] = biological target: Hepatocyte growth factor receptor (Homo sapiens, UniProt P08581); format: functional;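 note: kinase panel profiling across the kinome, with MET as the panel member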
[22] = biological target: Receptor-type tyrosine-protein kinase FLT3 (Homo sapiens, UniProt P36888); format: functional;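 note: FLT3 was tested as one member of a kinome-wide kinase panel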
[23] = biological target: Serine/threonine-protein kinase MRCK alpha (Homo sapiens, UniProt Q5VT25); format: functional
[24] = biological target: Serine/threonine-protein kinase BRSK1 (Homo sapiens, UniProt Q8TDC3); format: functional;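 note: measured within a kinome-wide kinase panel, with the target listed as KIAA1811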
[25] = tested on: BJ; experiment: cells; format: functional, cell-based; conditions: Homo sapiens
[26] = tested on: BJ; experiment: cytotoxicity toward BJ-TERT-LT-ST fibroblasts, dose response, cell-based, RAS-independent, luminescence (AID 1935); format: functional; conditions: Homo sapiens;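 note: BJ fibroblasts immortalized with TERT plus LT and ST oncogenes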

Sequence of Ribosomal protein S6 kinase alpha-5 (O75582 whole entry): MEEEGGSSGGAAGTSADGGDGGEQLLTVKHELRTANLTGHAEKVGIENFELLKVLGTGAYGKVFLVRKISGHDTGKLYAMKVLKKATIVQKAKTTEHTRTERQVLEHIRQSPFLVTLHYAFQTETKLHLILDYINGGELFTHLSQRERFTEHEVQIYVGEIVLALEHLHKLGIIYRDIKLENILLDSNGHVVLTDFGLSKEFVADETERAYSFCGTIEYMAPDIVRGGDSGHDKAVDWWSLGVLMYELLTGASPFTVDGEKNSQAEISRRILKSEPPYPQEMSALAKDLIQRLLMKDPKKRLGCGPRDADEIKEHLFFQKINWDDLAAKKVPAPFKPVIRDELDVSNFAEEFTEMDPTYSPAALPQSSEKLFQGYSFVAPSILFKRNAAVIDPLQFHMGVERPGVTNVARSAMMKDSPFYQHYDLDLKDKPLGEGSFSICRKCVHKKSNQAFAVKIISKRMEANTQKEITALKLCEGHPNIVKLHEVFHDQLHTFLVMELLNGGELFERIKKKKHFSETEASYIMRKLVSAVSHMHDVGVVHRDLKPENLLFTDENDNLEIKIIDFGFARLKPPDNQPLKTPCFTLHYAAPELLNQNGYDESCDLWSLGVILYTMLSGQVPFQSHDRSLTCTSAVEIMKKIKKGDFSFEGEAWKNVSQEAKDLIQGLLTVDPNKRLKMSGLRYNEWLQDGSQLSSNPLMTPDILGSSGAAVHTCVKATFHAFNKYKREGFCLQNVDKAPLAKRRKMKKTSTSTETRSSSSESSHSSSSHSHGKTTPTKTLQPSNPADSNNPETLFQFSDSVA
Sequence of Fatty acid synthase (P49327 whole entry, the tested form may be a part): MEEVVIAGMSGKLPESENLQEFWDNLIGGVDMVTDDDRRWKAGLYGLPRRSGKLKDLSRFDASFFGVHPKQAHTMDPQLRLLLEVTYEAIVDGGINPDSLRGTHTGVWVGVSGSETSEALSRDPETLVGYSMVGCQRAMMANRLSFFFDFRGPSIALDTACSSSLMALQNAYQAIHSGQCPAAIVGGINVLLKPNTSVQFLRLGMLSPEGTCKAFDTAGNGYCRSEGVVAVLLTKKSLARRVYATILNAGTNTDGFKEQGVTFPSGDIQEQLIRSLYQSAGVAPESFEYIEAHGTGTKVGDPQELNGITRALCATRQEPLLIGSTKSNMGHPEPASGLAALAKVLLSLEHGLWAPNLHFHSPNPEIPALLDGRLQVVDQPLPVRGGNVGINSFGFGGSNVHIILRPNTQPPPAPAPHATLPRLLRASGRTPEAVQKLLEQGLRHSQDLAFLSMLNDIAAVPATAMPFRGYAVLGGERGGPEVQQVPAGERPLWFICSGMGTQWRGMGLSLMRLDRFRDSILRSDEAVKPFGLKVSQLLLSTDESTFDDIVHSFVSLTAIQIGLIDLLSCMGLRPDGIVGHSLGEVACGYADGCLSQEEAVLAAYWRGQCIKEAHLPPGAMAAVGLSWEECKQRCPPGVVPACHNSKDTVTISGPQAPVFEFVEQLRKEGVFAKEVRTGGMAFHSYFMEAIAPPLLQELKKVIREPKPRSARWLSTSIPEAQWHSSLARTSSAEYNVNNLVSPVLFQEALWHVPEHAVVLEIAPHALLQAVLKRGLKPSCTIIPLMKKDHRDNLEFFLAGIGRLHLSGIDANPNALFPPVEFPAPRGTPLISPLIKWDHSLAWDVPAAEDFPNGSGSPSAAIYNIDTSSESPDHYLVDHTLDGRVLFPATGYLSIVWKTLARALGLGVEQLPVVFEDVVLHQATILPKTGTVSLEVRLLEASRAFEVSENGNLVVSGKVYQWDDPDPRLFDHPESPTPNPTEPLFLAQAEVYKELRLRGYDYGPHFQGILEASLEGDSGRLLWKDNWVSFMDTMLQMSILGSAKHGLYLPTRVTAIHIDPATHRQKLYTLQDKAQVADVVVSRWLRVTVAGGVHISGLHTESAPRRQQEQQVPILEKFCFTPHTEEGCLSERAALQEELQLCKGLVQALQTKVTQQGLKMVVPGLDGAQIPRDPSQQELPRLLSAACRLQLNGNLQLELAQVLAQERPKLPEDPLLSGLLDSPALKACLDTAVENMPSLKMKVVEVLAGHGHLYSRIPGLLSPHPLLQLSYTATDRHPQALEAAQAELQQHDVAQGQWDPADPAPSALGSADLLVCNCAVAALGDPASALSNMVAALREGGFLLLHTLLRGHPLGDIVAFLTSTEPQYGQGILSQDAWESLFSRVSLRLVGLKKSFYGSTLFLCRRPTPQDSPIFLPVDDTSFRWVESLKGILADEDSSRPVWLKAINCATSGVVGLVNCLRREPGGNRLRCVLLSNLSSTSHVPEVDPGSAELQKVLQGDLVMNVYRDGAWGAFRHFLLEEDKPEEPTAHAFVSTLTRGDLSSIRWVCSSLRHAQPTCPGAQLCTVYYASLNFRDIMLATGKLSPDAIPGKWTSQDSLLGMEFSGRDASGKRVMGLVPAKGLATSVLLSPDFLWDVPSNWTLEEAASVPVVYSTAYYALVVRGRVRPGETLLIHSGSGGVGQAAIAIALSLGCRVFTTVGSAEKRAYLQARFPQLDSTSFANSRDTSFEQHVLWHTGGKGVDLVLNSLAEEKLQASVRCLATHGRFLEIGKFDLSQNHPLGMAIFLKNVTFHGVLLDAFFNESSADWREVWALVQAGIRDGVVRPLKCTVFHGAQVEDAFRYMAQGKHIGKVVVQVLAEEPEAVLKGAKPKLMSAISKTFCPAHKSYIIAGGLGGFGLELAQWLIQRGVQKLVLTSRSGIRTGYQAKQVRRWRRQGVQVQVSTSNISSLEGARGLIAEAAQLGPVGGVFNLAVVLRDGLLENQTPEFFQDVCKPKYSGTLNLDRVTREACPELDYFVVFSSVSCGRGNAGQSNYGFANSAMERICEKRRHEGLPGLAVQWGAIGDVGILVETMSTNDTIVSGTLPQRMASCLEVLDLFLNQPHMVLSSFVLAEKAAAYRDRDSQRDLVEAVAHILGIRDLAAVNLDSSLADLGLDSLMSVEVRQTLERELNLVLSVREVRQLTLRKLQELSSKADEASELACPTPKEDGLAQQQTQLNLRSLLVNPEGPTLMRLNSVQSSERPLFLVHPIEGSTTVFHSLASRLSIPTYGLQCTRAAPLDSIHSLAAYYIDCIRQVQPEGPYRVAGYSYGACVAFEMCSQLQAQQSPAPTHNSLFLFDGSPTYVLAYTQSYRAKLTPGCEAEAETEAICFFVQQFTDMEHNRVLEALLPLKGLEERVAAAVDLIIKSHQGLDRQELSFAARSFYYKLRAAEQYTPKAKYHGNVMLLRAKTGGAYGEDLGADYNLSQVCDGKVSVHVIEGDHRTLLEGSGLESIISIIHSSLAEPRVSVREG
Sequence of High affinity nerve growth factor receptor (P04629 whole entry): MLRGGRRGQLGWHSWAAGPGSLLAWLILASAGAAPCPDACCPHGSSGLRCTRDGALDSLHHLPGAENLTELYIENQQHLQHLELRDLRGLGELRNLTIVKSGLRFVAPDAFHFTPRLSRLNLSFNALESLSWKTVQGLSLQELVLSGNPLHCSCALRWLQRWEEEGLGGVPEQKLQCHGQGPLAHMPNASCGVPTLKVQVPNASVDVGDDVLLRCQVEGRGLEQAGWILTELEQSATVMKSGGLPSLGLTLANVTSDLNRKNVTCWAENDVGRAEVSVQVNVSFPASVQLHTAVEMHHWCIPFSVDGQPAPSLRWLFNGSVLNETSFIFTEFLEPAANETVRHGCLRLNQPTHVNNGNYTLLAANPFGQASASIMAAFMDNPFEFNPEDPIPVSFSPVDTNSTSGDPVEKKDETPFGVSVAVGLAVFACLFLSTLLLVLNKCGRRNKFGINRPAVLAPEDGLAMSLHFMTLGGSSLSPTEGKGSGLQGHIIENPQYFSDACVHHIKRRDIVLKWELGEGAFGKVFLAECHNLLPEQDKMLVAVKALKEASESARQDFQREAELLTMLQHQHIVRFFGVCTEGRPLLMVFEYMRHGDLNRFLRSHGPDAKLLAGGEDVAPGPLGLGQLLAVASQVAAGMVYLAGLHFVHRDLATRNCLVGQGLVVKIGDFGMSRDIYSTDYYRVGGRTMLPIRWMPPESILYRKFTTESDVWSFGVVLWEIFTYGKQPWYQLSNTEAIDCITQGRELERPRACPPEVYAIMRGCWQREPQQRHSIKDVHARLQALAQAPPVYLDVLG
Sequence of SRSF protein kinase 1 (Q96SB4 whole entry): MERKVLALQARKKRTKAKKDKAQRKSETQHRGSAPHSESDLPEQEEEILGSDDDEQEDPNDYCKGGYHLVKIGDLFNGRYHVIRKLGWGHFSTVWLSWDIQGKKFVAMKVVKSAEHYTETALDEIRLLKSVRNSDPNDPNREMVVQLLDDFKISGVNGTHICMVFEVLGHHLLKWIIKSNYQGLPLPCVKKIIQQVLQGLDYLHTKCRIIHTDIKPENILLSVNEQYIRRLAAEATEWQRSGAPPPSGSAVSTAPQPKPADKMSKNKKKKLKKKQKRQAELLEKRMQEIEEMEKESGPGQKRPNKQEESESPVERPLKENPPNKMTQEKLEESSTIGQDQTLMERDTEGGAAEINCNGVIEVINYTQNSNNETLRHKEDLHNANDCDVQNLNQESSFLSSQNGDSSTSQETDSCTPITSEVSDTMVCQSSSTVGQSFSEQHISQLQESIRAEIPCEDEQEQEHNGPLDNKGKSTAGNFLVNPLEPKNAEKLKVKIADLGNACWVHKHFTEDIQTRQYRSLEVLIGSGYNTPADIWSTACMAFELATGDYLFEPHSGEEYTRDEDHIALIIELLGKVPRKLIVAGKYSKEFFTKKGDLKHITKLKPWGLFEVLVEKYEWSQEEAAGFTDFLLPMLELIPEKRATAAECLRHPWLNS
Sequence of G-protein coupled receptor 35 (Q9HC97 whole entry): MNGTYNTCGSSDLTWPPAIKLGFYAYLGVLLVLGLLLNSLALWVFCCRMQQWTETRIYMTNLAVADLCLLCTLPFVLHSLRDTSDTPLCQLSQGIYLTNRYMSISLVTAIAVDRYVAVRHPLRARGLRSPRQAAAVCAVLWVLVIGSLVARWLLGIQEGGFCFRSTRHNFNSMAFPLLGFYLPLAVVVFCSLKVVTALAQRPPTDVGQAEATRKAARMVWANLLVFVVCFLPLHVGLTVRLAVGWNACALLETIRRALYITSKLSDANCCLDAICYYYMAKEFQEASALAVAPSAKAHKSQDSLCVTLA

`CC(=O)N(C1=C(Cl)C(=O)c2ccccc2C1=O)C1CCCCC1` was tested, and the IC50 [1] was 5.55 µM (active), the EC50 [2] was > 150 µM (not active) and the AC50 [3] was 0.524 µM (active). For the same compound, the IC50 [4] was 4.54 µM (active).
`Oc1ccc(-c2cn3c(n2)SCC3)cc1O` was tested, and the EC50 [5] was 22.1 µM (active), the EC50 [6] was 21 µM (active) and the EC50 [7] was 70.9 µM (active).
In the case of `O=C1Nc2ccc3ncsc3c2C1=CNc1ccc(S(=O)(=O)Nc2ccccn2)cc1`, the Ki [8] was 0.158 µM (active), the Ki [9] was 0.158 µM (active) and the Ki [10] was 1.26 µM (active). The Ki [11] was 0.0501 µM (active), the Ki [12] was 1 µM (active) and the Ki [13] was 1.26 µM (active). For the same compound, the Ki [14] was 0.2 µM (active), the Ki [15] was 0.0794 µM (active) and the Ki [16] was 0.0251 µM (active). For the same compound, the Ki [17] was 0.794 µM (active), the Ki [18] was 0.398 µM (active) and the Ki [19] was > 2 µM (inactive). The Ki [20] was 0.02 µM (active), the Ki [21] was 0.2 µM (active) and the Ki [22] was 0.00316 µM (active). The Ki [23] was > 10 µM (inactive) and the Ki [24] was 0.0126 µM (active).
For `Cc1ccc(NC2=C/C(=N\S(=O)(=O)c3cccs3)c3ccccc3C2=O)c(C)c1`, the EC50 [25] was 4.15 µM (active) and the EC50 [26] was 4.42 µM (inconclusive).
